Data reported in US8344028B2, “Gamma-amino-butyric acid derivatives as GABAB receptor ligands” (XenoPort, Inc., priority 2009, dated 2013).
Structures can show the parent of a compound that is named as a salt.

How the values were obtained:
[1] = target: T1, GABAB receptor (Rattus norvegicus, UniProt Q9Z0U4); assay: [3H]CGP54626 rat brain GABAB receptor binding assay; conditions: [3H]CGP54626 rat brain binding assay
T1 construct: from tissue; host or cells: rat cerebral cortex membranes
Protocol: An assay using rat cerebral cortex membranes was used to determine the affinity of GABAB receptor ligands for the GABAB receptor.
An assay buffer of 50 mM Tris pH 7.4 was prepared with 100 μM of isoguvacine, to block GABAA interactions. The assay buffer with isoguvacine was used for dilution of membranes, compounds, and radiolabel.
Rat cerebral cortex membranes were diluted in assay buffer at 1 mg/mL and aliquoted into a 96-well plate at 900 μL/well. Buffer or test compound were added at 20-times final concentration in the buffer at 50 μL/well. Membranes and test compounds or buffer were incubated for 10 min. at room temperature. Radiolableled [S—(R*,R*)]-[3-[[1-(3,4-dichlorophenyl)ethyl]amino]-2-hydroxypropyl](cyclohexylmethyl) phosphinic acid (CGP54626) was then added at 50 μL/well in the buffer at 1-10 nM concentration in 50 μl. The mixture was incubated for 15 min. at room temperature. The assay mixture was filtered using Brandell filtration apparatus and GFB filters, washed twice with 3 mL of 4° C., 50 mM Tris pH 7.4, buffer without isoguvacine. The filters were then dried at room temperature and the dried filters punched out and placed in individual vials. Three (3) mL of scintillation fluid was added to each vial and the radiolabel counted on the scintillation counter. The inverse amount of radiolabel was indicative of binding of a test compound to the GABAB receptor.

[2] = target: T2, recombinant human GABABR1a2 (Homo sapiens, UniProt Q9UBS5); assay: Ca2+ assay for determining GABAB receptor agonist activity; format: cell-based; conditions: cells expressing recombinant human GABABR1a2
T2 construct: expressed in transfected cells; host or cells: HEK cells
T2 sequence (Q9UBS5 15-961 limits assumed): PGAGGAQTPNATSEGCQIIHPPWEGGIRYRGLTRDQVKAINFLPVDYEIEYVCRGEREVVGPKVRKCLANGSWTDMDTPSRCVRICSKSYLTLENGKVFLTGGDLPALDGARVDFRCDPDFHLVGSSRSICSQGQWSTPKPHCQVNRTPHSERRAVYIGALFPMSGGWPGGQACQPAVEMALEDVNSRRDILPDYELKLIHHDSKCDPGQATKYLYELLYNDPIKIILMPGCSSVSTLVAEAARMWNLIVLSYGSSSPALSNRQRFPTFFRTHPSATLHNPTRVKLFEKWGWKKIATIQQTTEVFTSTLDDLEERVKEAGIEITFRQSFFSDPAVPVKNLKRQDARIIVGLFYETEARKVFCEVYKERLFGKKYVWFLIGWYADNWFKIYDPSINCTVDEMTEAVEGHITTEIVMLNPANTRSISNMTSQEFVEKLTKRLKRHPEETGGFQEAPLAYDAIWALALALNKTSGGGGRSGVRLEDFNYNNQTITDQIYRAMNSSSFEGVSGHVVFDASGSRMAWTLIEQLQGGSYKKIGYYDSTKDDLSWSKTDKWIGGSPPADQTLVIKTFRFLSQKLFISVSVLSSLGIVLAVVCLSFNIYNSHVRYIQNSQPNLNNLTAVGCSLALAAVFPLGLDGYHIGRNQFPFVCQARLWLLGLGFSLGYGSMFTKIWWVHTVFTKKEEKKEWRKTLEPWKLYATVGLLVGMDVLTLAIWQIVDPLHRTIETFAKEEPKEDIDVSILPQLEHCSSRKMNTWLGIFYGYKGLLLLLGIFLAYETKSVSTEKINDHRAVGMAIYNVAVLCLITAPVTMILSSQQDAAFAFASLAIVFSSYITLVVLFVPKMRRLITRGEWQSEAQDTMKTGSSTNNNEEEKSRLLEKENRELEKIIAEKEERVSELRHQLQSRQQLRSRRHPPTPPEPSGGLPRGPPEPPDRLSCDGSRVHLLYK
T2 sequence (O75899 42-941 partner): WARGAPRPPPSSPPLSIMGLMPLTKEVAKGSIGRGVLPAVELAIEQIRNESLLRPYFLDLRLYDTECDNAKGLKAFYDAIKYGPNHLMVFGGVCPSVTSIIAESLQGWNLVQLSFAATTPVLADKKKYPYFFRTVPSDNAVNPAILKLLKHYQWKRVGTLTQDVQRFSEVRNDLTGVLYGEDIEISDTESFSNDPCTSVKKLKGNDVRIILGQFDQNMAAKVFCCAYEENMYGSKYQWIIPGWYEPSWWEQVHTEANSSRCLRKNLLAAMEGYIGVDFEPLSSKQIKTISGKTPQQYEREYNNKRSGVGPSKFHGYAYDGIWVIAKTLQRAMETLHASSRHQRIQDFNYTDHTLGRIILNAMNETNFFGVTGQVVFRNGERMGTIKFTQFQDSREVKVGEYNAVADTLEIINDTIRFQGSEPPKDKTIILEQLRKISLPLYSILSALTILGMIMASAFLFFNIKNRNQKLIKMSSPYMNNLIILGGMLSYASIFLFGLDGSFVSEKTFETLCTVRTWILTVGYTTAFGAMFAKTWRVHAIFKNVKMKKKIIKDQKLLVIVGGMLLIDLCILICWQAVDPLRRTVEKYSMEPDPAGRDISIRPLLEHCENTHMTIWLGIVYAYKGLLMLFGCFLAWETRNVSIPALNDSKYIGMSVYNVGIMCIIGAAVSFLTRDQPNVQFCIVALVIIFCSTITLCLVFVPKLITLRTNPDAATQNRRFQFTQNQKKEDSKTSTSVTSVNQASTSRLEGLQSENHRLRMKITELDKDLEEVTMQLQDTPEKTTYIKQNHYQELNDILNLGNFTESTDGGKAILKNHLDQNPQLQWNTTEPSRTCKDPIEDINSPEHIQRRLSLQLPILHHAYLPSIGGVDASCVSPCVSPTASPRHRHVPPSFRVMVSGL
Protocol: The following procedure was used to determine the GABAB receptor agonist activity of a compound as reflected by activation of Ca^2+ signaling. HEK TREx cells expressing GABABR1a2 under tetracycline induction control, and Gqi chimeric protein (expressed constitutively), allowing GABABR coupling through the Ca^2+ signaling pathway were used in the experiments.
Cells were seeded in media containing tetracycline overnight at 100,000 cells/well, in black, clear-bottom, 96-well plates. The following morning, cells were washed twice with 100 μL HBSS buffer per well. Fluorescent Ca^2+ indicator dye was prepared using the materials and procedure described in the F362056 Fluo-4 NW Calcium Assay Kit (Invitrogen, Carlsbad, Calif.). Ten (10) mL of kit buffer and 100 μl of kit Probenecid were added to individual kit dye vials, and rolled back and forth several times to dissolve the dye. Cells were then loaded into the dye solution at 50 μL per well. The cells and dye were incubated for 30 min at 37° C., and then incubated for an additional 30 min at room temperature in the dark. Test compounds are dissolved in HBSS buffer at twice final concentration. Duplicate wells were used for each unique condition. Solution containing the test compound was added to the wells using a FLEXStation II (Molecular Devices, Sunnyvale, Calif.). Using the instrument in kinetic mode in which each well was read every 2 sec over a total collection time of 50 sec fluorescence was measured using an excitation wavelength 494 nm and a detection wavelength of 516 nm. A normalized fluorescence value for each well was calculated using the following procedure. The difference in fluorescence at 35 sec (usually representing maximal response) and at 15 sec (a time point prior to addition of test compounds) was calculated, divided by the fluorescence at 15 sec, and the result multiplied by 100. The final value represented the percent increase in fluorescence relative to the fluorescence at 15 sec. Data was analyzed using standard procedures.

[3] = target: T2, recombinant human GABABR1a2; assay: cAMP assay for determining GABAB receptor agonist activity; format: cell-based; conditions: cells expressing recombinant human GABABR1a2; read-out: cAMP EC50
Protocol: The following procedure was used to determine the level of intracellular cAMP. Recombinant HEK cells expressing the GABAB R1a2 receptor were used in the experiments. cAMP levels were measured using a cAMP XS^+ HitHunter™ Chemiluminescence Assay Kit (90-0075-02, GE Healthcare Biosciences Corp.). Cells were seeded overnight at 5,000 cells per well, in black, clear bottom 96-well plates. The following morning, cells were washed twice with 100 μL PBS per well. Forskolin was weighed out and dissolved in DMSO to a final concentration 100 mM. One-hundred (100) μM forskolin solutions were prepared in PBS with and without test compound at 1-times final concentration. Thirty (30) μL of the test solutions were added to the wells and incubated for 1 h at room temperature. The cAMP concentration was determined according to the protocol described in the cAMP assay kit, maintaining the plate at room temperature and in the dark. Two hours after the final kit reagent was added, the plate bottom was covered with black tape, and the plate read using a 1450 MicroBeta Trilux microplate scintillation and luminescence counter (PerkinElmer, Waltham, Mass.). Each well was read for 6 seconds. The untransformed data was then analyzed.

[4] = target: GABAB receptor (Homo sapiens, UniProt Q9UBS5); assay: GABAB receptor agonist or partial agonist activity by binding, electrophysiology, cAMP and/or Ca2+ assay methods (Examples 83-86); format: cell-based
Sequence of GABAB receptor (Homo sapiens, UniProt Q9UBS5) (Q9UBS5 20-961): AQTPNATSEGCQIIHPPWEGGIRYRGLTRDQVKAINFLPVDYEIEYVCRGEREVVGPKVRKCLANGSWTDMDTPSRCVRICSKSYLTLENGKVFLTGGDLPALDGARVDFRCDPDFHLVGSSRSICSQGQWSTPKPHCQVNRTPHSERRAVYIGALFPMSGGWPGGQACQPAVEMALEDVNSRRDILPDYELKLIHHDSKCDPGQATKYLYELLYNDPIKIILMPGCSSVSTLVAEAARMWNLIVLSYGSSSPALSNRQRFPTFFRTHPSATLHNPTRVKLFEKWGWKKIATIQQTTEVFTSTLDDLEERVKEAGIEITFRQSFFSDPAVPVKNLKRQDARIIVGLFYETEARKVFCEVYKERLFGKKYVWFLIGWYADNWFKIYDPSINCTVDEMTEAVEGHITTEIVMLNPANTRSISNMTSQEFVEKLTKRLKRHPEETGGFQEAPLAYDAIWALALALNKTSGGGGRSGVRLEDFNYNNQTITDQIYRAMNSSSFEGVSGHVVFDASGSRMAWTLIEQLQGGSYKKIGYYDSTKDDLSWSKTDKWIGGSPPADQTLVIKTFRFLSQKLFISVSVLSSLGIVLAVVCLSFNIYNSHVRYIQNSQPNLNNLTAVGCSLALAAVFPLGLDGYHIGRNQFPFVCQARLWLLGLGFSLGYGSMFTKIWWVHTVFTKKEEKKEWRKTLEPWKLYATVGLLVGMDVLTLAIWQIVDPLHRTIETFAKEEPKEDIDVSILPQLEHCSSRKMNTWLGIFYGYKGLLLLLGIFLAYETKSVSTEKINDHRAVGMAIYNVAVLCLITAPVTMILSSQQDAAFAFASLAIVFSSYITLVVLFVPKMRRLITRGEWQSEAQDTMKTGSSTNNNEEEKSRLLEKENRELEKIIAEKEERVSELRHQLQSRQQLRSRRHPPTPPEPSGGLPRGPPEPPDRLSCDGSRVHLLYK
Sequence of GABAB receptor (Homo sapiens, UniProt Q9UBS5) (O75899 42-941 partner): as the sequence (O75899 42-941 partner) above
How it was run: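 Binding: rat cortex membranes in 50 mM Tris pH 7.4 with 100 μM isoguvacine were preincubated 10 min at RT with compound, then radiolabeled CGP54626 (1-10 nM) was added; filtered and scintillation-counted. cAMP: GABAB R1a2 HEK cells, 1 h RT with 100 μM forskolin, chemiluminescence.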

T1 sequence (Q9Z0U4 20-960): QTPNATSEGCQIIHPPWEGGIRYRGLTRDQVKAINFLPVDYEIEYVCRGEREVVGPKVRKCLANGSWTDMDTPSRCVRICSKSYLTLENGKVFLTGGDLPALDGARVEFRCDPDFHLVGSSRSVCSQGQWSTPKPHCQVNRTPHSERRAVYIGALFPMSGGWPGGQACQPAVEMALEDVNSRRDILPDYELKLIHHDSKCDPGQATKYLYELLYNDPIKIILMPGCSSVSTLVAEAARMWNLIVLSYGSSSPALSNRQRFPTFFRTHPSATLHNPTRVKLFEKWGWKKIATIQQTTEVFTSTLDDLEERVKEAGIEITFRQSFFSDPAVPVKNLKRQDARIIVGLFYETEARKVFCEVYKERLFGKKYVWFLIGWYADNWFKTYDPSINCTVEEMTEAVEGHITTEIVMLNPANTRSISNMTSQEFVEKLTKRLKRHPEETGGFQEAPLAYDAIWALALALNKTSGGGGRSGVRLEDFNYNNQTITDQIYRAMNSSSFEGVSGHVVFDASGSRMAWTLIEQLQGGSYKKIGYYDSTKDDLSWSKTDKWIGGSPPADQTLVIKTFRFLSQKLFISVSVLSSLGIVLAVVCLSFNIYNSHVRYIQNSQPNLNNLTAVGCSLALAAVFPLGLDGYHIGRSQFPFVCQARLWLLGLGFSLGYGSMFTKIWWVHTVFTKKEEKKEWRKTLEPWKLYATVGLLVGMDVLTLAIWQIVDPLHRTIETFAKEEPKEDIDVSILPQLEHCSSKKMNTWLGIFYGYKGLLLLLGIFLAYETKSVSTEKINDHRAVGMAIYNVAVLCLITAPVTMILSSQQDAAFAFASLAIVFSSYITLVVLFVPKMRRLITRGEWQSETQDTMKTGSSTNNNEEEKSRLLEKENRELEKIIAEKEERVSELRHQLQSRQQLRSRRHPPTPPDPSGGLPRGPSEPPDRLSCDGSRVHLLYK
T1 sequence (O88871 41-940 partner): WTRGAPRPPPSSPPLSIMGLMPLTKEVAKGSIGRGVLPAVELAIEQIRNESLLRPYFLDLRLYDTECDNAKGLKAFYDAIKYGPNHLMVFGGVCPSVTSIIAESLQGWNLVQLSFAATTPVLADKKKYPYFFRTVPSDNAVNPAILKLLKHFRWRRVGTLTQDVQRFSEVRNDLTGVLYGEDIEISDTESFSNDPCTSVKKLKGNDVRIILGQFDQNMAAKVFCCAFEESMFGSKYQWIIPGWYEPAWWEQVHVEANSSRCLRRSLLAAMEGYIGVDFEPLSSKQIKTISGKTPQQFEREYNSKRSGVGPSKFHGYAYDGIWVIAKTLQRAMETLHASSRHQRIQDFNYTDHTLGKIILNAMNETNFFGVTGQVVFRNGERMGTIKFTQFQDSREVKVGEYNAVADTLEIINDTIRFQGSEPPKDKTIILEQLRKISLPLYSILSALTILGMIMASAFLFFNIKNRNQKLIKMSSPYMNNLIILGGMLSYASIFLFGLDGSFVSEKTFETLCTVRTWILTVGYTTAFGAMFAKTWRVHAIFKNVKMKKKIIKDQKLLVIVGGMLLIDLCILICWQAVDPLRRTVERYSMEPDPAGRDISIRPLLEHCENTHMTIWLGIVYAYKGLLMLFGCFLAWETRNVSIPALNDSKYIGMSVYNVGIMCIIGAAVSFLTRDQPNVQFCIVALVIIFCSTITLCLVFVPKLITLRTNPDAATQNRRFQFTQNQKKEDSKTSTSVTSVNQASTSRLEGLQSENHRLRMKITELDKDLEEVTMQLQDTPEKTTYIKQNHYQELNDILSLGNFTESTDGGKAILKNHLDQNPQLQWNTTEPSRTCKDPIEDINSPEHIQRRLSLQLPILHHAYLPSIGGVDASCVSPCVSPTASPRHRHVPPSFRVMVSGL

Compound	GABAB receptor agonist or partial agonist activity [4]	other results
NC[C@H](CC(=O)O)c1ccc(Cl)c(-c2cc(C(=O)O)co2)c1 [5-{5-[(1R)-2-amino-1-(carboxymethyl)ethyl]-2-chlorophenyl}furan-3-carboxylic acid hydrochloride]		IC50 [1]: < 25000 nM; EC50 [2]: < 700 nM; EC50 [3]: < 100 nM
NC[C@H](CC(=O)O)c1ccc(Cl)c(-c2cc(C(=O)O)cs2)c1 [5-{5-[(1R)-2-amino-1-(carboxymethyl)ethyl]-2-chlorophenyl}thiophene-3-carboxylic acid hydrochloride]		IC50 [1]: < 25000 nM; EC50 [2]: < 700 nM; EC50 [3]: < 100 nM
C[C@@H](Oc1cc([C@H](CN)CC(=O)O)ccc1Cl)c1ccncc1 [(3R)-3-[3-((1R)-1-(4-pyridyl)ethoxy)-4-chlorophenyl]-4-aminobutanoic acid hydrochloride]		IC50 [1]: < 25000 nM; EC50 [2]: < 700 nM; EC50 [3]: < 100 nM
Cl.NC[C@H](CC(=O)O)c1ccc(Cl)c(-c2ccc(C(=O)O)cc2)c1 [Example 24, 4-{5-[(1R)-2-Amino-1-(carboxymethyl)ethyl]-2-chlorophenyl}benzoic acid hydrochloride]	agonist or partial agonist activity	
Cl.NC[C@H](CC(=O)O)c1ccc(Cl)c(-c2cccc(CO)c2)c1 [Example 28, (3R)-4-Amino-3-{4-chloro-3-[3-(hydroxymethyl)phenyl]phenyl}butanoic acid hydrochloride]	agonist or partial agonist activity	
Cc1ncc(-c2cc([C@H](CN)CC(=O)O)ccc2Cl)cn1.Cl [Example 30, (3R)-4-Amino-3-[4-chloro-3-(2-methylpyrimidin-5-yl)phenyl]butanoic acid hydrochloride]	agonist or partial agonist activity	
Cl.NC[C@H](CC(=O)O)c1ccc(Cl)c(-c2cccc(O)c2)c1 [Example 34, (3R)-4-Amino-3-[4-chloro-3-(3-hydroxyphenyl)phenyl]butanoic acid hydrochloride]	agonist or partial agonist activity	
COc1cccc(-c2cc([C@H](CN)CC(=O)O)ccc2Cl)c1.Cl [Example 35, (3R)-4-Amino-3-[4-chloro-3-(3-methoxyphenyl)phenyl]butanoic acid hydrochloride]	agonist or partial agonist activity	
Cl.NC[C@H](CC(=O)O)c1ccc(Cl)c(-c2ccccc2)c1 [Example 39, (3R)-4-Amino-3-(4-chloro-3-phenyl-phenyl)butanoic acid hydrochloride]	agonist or partial agonist activity	
CN(C)c1cccc(-c2cc([C@H](CN)CC(=O)O)ccc2Cl)c1.Cl [Example 41, (3R)-4-Amino-3-{3-[3-(dimethylamino)phenyl]-4-chlorophenyl}butanoic acid hydrochloride]	agonist or partial agonist activity	
Cl.NC[C@H](CC(=O)O)c1ccc(Cl)c(-c2cccc(CC(=O)O)c2)c1 [Example 43, (3R)-4-Amino-3-{3-[3-(carboxymethyl)phenyl]-4-chlorophenyl}butanoic acid hydrochloride]	agonist or partial agonist activity	
Cl.NC[C@H](CC(=O)O)c1ccc(Cl)c(-c2ccc(C(=O)O)cc2Cl)c1 [Example 44, 4-{5-[(1R)-2-Amino-1-(carboxymethyl)ethyl]-2-chlorophenyl}-3-chlorobenzoic acid hydrochloride]	agonist or partial agonist activity	
Cl.NC[C@H](CC(=O)O)c1ccc(Cl)c(-c2cncc(C(=O)O)c2)c1 [Example 48, 5-{5-[(1R)-2-Amino-1-(carboxymethyl)ethyl]-2-chlorophenyl}pyridine-3-carboxylic acid hydrochloride]	agonist or partial agonist activity	
Cl.N#Cc1cc(-c2cc([C@H](CN)CC(=O)O)ccc2Cl)ccc1Cl [Example 49, (3R)-4-Amino-3-[4-chloro-3-(4-chloro-3-cyanophenyl)phenyl]butanoic acid hydrochloride]	agonist or partial agonist activity	
Cl.NC[C@H](CC(=O)O)c1cccc(-c2cccc(C(=O)O)c2)c1 [Example 51, 3-{3-[(1R)-2-Amino-1-(carboxymethyl)ethyl]phenyl}benzoic acid hydrochloride]	agonist or partial agonist activity	
Cl.N#Cc1cccc(-c2cc([C@H](CN)CCO)ccc2Cl)c1 [Example 53, 3-{5-[(1R)-1-(Aminomethyl)-3-hydroxypropyl]-2-chlorophenyl}benzenecarbonitrile hydrochloride]	agonist or partial agonist activity	
CS(=O)(=O)c1cccc(-c2cc([C@H](CN)CC(=O)O)ccc2Cl)c1.Cl [Example 54, (3R)-4-Amino-3-{4-chloro-3-[3-(methylsulfonyl)phenyl]phenyl}butanoic acid hydrochloride]	agonist or partial agonist activity	
Cl.NC[C@H](CC(=O)O)c1ccc(Cl)c(NCc2ccccn2)c1 [Example 58]	agonist or partial agonist activity	
Cn1cncc1CNc1cc([C@H](CN)CC(=O)O)ccc1Cl [Example 59, (3R)-4-Amino-3-(4-chloro-3-{[(1-methylimidazol-5-yl)methyl]amino}phenyl)butanoic acid]	agonist or partial agonist activity	
Cl.NC[C@H](CC(=O)O)c1ccc(Cl)c(NCc2ccc(C(=O)O)cc2)c1 [Example 63, 4-[({5-[(1R)-2-Amino-1-(carboxymethyl)ethyl]-2-chlorophenyl}amino)methyl]benzoic acid hydrochloride]	agonist or partial agonist activity	
Cl.NC[C@H](CC(=O)O)c1ccc(Cl)c(NCc2ccoc2)c1 [Example 64, (3R)-4-Amino-3-{4-chloro-3-[(3-furylmethyl)amino]phenyl}butanoic acid hydrochloride]	agonist or partial agonist activity	
(3R)-4-amino-3-{4-chloro-3-[(2-pyridyl)carbonylamino]phenyl)carbonylamino]phenyl}butanoic acid	agonist or partial agonist activity	
